For orientation: IC50 means the concentration needed to halve the response being measured.

The test can be described thus: Antagonist activity at human CRTh2 receptor in human whole blood assessed as inhibition of PGD2-induced eosinophil shape change after 10 mins by flow cytometric analysis in presence of 50% human plasma.
Regarding `COc1ccc(C(=O)N2CCc3ccccc32)cc1CSc1nc2cc(F)ccc2n1CC(=O)O`, the IC50 stood at 51 nM.

Regarding `CCCCNC(=O)c1ccc(OC)c(CSc2nc3cc(F)ccc3n2CC(=O)O)c1`, the IC50 was 41 nM.

With `COc1ccc(C(C)=O)cc1CSc1nc2ccccc2n1CC(=O)O`, the concentration for half-maximal inhibition (IC50) was 16 nM.

Values taken from BindingDB's records for doi:10.1016/j.bmcl.2012.05.087 (Actelion Pharmaceuticals, 2012).
